# Measured values as given in US11925634B2, “Use of koumine in preparation of medicament for treatment of inflammatory bowel disease” (Fujian Medical University, priority 2019, dated 2024).
# Columns and labels:
# [1] = test system: mice with OXA-induced colitis; assay: OXA-induced colitis in BALB/c mice (body weight, colon length, histomorphology); assay type: in vivo
# Description: OXA-induced colitis causes lesions primarily in the distal colon and resembles human IBD in terms of histological characteristics and distribution of inflammation, which can be manifested as a decrease in goblet cells.
# Six to eight week old healthy male SPF BALB/c mice were purchased from Shanghai SLAC Laboratory Animal Co., Ltd. (License No. SOCK (Shanghai) 2017-0005).
# The same koumine hydrochloride and mesalazine as in Example 1 were used. OXA was purchased from Sigma, USA and prepared in the form of a solution before use by fully dissolving it in absolute ethanol preheated to 35° C. When used for an enema, the solution was diluted 1-fold with normal saline to a desired concentration. Absolute ethanol was purchased from Merck, Germany. All the other reagents were the same as in Example 1.
# Seventy-four BALB/c mice were randomly assigned into a blank control group (n=6), a vehicle control group (n=10), a model group (n=19) and low-dose (n=10), medium-dose (n=9) and high-dose (n=12) koumine treatment groups and another treatment group (n=8) administered with mesalazine as a positive control. A mouse model of OXA-induced UC was established by sensitizing and then giving enemas to the mice in the model group and the individual treatment groups. Specifically, each of the mice was anesthetized and sensitized by drop-wise applying a 3% solution (150 μL) of OXA in absolute ethanol to a shaved abdominal area (about 1.5 cm×1.5 cm), and received an enema using a 1% solution of OXA in 50% ethanol (100 μL) five days following the sensitization (D0). The mice in the vehicle and blank control groups were treated similarly, except for drop-wise application of 150 μL absolute ethanol and normal saline in the sensitization phase, respectively, and use of 100 μL of 50% ethanol and the same volume of normal saline in the enema phase, respectively. From the day of enema administration (D0), the mice in the treatment groups received intragastric administration (0.1 mL/10 g) once a day for 4 consecutive days (D0-D3). The daily dosage of koumine and the positive control mesalazine to the treatment groups was the same as in Example 1, and the vehicle control group was given the same volumes of 50% ethanol. Bowel inflammation evaluation of the animals was conducted in the same manner using the same indicators as in Example 1.
# myeloperoxidase (MPO) [2] = assay: MPO activity assay in colonic tissue homogenates, OXA model; assay type: in vivo, BALB/c mice; settings: p<0.01, p<0.001 vs model, FIG. 10
# Description: (§1) […]
# [3] = test system: mice with DSS-induced bowel inflammation; assay: DSS-induced bowel inflammation in C57BL/6 mice (body weight, defecation, colon length, histopathology); assay type: in vivo; settings: for histopathological scoring: p<0.01 vs model, FIG. 4
# Description: Dextran sulfate sodium (DSS) has an anticoagulant effect and, when orally administered to experimental animals, can cause hyperemia, ulcers, submucosal edema in bowel tissue and other pathological manifestations closely similar to those of clinical IBD patients. Models of DSS-induced bowel inflammation can be taken as basic models for studying the pathogenesis of UC and even IBD and evaluating the efficacy of therapeutic medicaments. In this example, therapeutic effects of koumine were evaluated in a C57BL/6 mouse model of DSS-induced bowel inflammation with the animals' body weight, defecation, pathological manifestations of colonic tissue, expression of MPO in colonic tissue and the like as indicators.
# 1.1. Experimental Animals Six to eight week old healthy male SPF C57BL/6 mice (weighing 18-22 g) were purchased from Shanghai SLAC Laboratory Animal Co., Ltd. (License No. SOCK (Shanghai) 2017-0005). Prior to study start, the mice were acclimated for 7 days until their body weights reached 20±2 g. They were bred under conditions of a 12/12-h light-dark cycle (light on 8:00-20:00), constant temperature (20-26° C.) and constant humidity (40-70%), with food and water provided ad libitum. Experimental operations were conducted in accordance with regulations of international and local committees on care and use of laboratory animals (the same applies below).
# (§2) 1.2. Medicaments and Reagents Koumine hydrochloride (C20H22N2O·HCl) (in the form of a powder) was prepared in the School of Pharmacy, Fujian Medical University (Batch No. KM201610, with a purity of 99.99% as determined by high performance liquid chromatography), stored at 4° C. in the dark, and dissolved in normal saline to a desired concentration before use. DSS was purchased from MP Biomedicals, USA and fully dissolved in distilled water to a desired concentration before use. Mesalazine enteric coated tablets were purchased from Heilongjiang Tianhong Pharmaceutical Co., Ltd. A citrate (pH=6.0) antigen retrieval solution, BSA, an anti-myeloperoxidase primary antibody, an HRP-conjugated goat anti-rabbit secondary antibody and a histochemistry kit for DAB staining were purchased from Wuhan Servicebio Technology Co., Ltd. (the same applies below).
# (§3) Fifty-one healthy SPF C57BL/6 mice were randomly assigned into a blank control group (n=6), a model group (n=9) and 4 treatment groups (n=9 for each) respectively administered with low (0.67 mg/kg), medium (2 mg/kg) and high (6 mg/kg) doses of koumine, as well as mesalazine (100 mg/kg) as a positive control. A mouse model of DSS-induced bowel inflammation was established by allowing the mice in the model group and the individual treatment groups to have free access to a 2.5% DSS solution in water for 8 days and providing ad libitum access to normal water to the mice in the blank control group. From the day of induction (D0), the mice in the treatment groups received intragastric administration (0.1 mL/10 g) once a day for 9 consecutive days (D0-D8), while those in the control and model groups were given the same volumes of normal saline also by intragastric administration throughout the same period. Body weight measurements were taken and fecal occult blood tests were performed daily. One hour after the last administration (D8), the mice were sacrificed by cervical dislocation under anesthesia. Immediately after that, a bowel segment from the terminal ileum to the anus was removed from each mouse, and a length from the ileocolonic junction to the anus was measured and recorded. Colonic tissue was taken 1 cm away from the anus for histopathological examination, as well as for immunohistochemical detection for the expression of MPO. Additionally, colonic tissue was taken 1-2 cm away from the anus for MPO activity determination.
# myeloperoxidase (MPO) [4] = assay: Immunohistochemical detection of MPO expression in colonic tissue, DSS model; assay type: in vivo, C57BL/6 mice
# Description: as §2, §3
# myeloperoxidase (MPO) [5] = assay: Immunohistochemical detection of MPO expression in colonic tissue, OXA model; assay type: in vivo, BALB/c mice
# Description: as §1
# [6] = mesalazine 100 mg/kg intragastric
smiles,measurement,setting,value
C=CC12CN(C)C3CC14C(=Nc1ccccc14)C1CC2C3CO1 (centres unmarked) [koumine],"gross manifestations of colonic tissue (hyperemia, redness and swelling)",[1]; high dose 6 mg/kg intragastric,remarkable relief of most manifestations of colonic tissue
same,microscopic manifestations of HE-stained colonic tissue,"[1]; high dose 6 mg/kg intragastric, FIG. 8 E",infiltration of only a small number of inflammatory cells
same,body weight loss,"[1]; koumine 0.67, 2, 6 mg/kg intragastric once a day D0-D3, FIG. 6",alleviate body weight loss of mice with colitis in a dose-dependent manner
same,positive effect on colon length,"[1]; koumine 0.67, 2, 6 mg/kg intragastric, FIG. 7",dose-dependent
same,"gross manifestations of colonic tissue (hyperemia, redness and swelling)",[1]; low dose 0.67 mg/kg intragastric,appeared to not mitigate the manifestations
same,microscopic manifestations of HE-stained colonic tissue,"[1]; low dose 0.67 mg/kg intragastric, FIG. 8 C",slightly milder symptoms than the symptoms of the model group
same,colon shortening,"[1]; low dose 0.67 mg/kg intragastric, p<0.01 vs model, FIG. 7",significantly reduce their colon shortening
same,"gross manifestations of colonic tissue (hyperemia, redness and swelling)",[1]; medium dose 2 mg/kg intragastric,"not seen with severe redness and swelling, hyperemia or other inflammatory manifestations"
same,microscopic manifestations of HE-stained colonic tissue,"[1]; medium dose 2 mg/kg intragastric, FIG. 8 D",infiltration of only a small number of inflammatory cells
same,enzymatic activity of MPO in colonic tissue,"myeloperoxidase (MPO) [2]; koumine at the different doses (0.67, 2, 6 mg/kg) intragastric",significantly reduced enzymatic activity per unit weight
same,defecation and hematochezia,[3]; high dose 6 mg/kg intragastric once a day,fewer times of defecation and mitigated hematochezia
same,gross damage and hyperemia of bowel mucosa,"[3]; koumine 0.67, 2, 6 mg/kg intragastric once a day","ameliorate damage, hyperemia and the like"
same,symptom of weight loss,"[3]; koumine 0.67, 2, 6 mg/kg intragastric once a day D0-D8, FIG. 1",alleviate the symptom of weight loss
same,colon shortening,"[3]; koumine 0.67, 2, 6 mg/kg intragastric once a day, FIG. 2",dose-dependently reduce colon shortening
same,microscopic manifestations of HE-stained colonic tissue,"[3]; koumine 0.67, 2, 6 mg/kg intragastric, FIG. 3 C-E",reduced inflammatory cell infiltration
same,histopathological scoring,[3]; koumine high dose 6 mg/kg intragastric,significantly inhibit increases in the sore of the model group
same,average body weight vs model group,"[3]; low dose 0.67 mg/kg intragastric once a day, as early as D6 (seventh day of administration), p<0.05, FIG. 1",significantly higher than that of those in the model group
same,colon length vs model group,"[3]; low dose 0.67 mg/kg intragastric, eighth day of administration, p<0.05, FIG. 2",significantly greater than that of the model group
same,defecation and hematochezia,[3]; medium dose 2 mg/kg intragastric once a day,fewer times of defecation and mitigated hematochezia
same,average body weight vs model group,"[3]; medium dose 2 mg/kg intragastric once a day, from D5 (sixth day of administration), p<0.05 and p<0.01, FIG. 1",significantly higher than that of those in the model group
same,expression of MPO in colonic tissue,"myeloperoxidase (MPO) [4]; high dose 6 mg/kg intragastric, FIG. 5 E",lowered the expression of MPO to different extents
same,expression of MPO in colonic tissue,"myeloperoxidase (MPO) [4]; low dose 0.67 mg/kg intragastric, FIG. 5 C",did not lead to any noticeable decrease in the expression of MPO
same,expression of MPO in colonic tissue,"myeloperoxidase (MPO) [4]; medium dose 2 mg/kg intragastric, FIG. 5 D",lowered the expression of MPO to different extents
same,expression of MPO in colonic tissue,"myeloperoxidase (MPO) [5]; koumine at the different doses (0.67, 2, 6 mg/kg) intragastric, FIG. 9 C-E",suppressed expression of MPO to varying extents
"Nc1ccc(O)c(C(=O)O)c1 [mesalazine, reference compound]",effect of alleviating body weight loss,"[1]; mesalazine 100 mg/kg intragastric once a day D0-D3, FIG. 6",comparable to that of the medium dose of koumine
same,positive effect on colon length,"[1]; mesalazine 100 mg/kg intragastric, FIG. 7",comparable to that of koumine at 6 mg/kg
same,microscopic manifestations of HE-stained colonic tissue,"[1]; mesalazine 100 mg/kg intragastric, FIG. 8 F",infiltration of only a small number of inflammatory cells
same,enzymatic activity of MPO in colonic tissue,myeloperoxidase (MPO) [2]; [6],significantly reduced enzymatic activity per unit weight
same,microscopic manifestations of HE-stained colonic tissue,"[3]; mesalazine 100 mg/kg intragastric, FIG. 3 F",obvious improvements over the model group mice
same,histopathological scoring,[3]; [6],significantly inhibit increases in the sore of the model group
same,expression of MPO in colonic tissue,"myeloperoxidase (MPO) [4]; mesalazine 100 mg/kg intragastric, FIG. 5 F",lowered the expression of MPO to different extents
same,expression of MPO in colonic tissue,"myeloperoxidase (MPO) [5]; mesalazine 100 mg/kg intragastric, FIG. 9 F",suppressed expression of MPO to varying extents
